#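 96-well plates; 48 h exposure; 5 concentrations. Endpoints by linear interpolation between flanking doses. Not reached: highest tested concentration assigned. TGI: total growth inhibition.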
# Assays:
# Assay in all cases: NCI anticancer screen, dose series, 48 h
# [1] = system: HL-60(TB) leukemia
# [2] = system: 786-0 renal
# [3] = system: NCI-H460 lung
# [4] = system: A549 NSCLC
# [5] = system: SN12C renal
# [6] = system: SF-539 CNS
# [7] = system: SF-268 CNS
# [8] = system: NCI-H522 lung
# [9] = system: SR leukemia
# [10] = system: KM12 colon
# [11] = system: MOLT-4 leukemia
# [12] = system: HT29 colon
# [13] = system: OVCAR-8 ovarian
# [14] = system: UACC-62 melanoma
# [15] = system: HOP-92 NSCLC
# [16] = system: SF-295 CNS
# [17] = system: SK-MEL-5 melanoma
# [18] = system: UO-31 renal
# [19] = system: M19-MEL melanoma
# [20] = system: M14 melanoma
# [21] = system: HOP-62 NSCLC
# [22] = system: OVCAR-4 ovarian
# [23] = system: NCI-H226 lung
# [24] = system: MALME-3M melanoma
# [25] = system: SK-MEL-2 melanoma
# [26] = system: CCRF-CEM leukemia
# [27] = system: ACHN renal
# [28] = system: EKVX NSCLC
# [29] = system: OVCAR-5 ovarian
# [30] = system: LXFL 529 NSCLC
# [31] = system: RPMI-8226 leukemia
# [32] = system: K-562 leukemia
# [33] = system: LOX IMVI melanoma
# [34] = system: DLD-1 colon
# [35] = system: CAKI-1 renal
# [36] = system: HCT-116 colon
# [37] = system: IGROV1 ovarian
# [38] = system: DMS 114 small cell lung
# [39] = system: OVCAR-3 ovarian
# [40] = system: SW-620 colon
# [41] = system: HCT-15 colon
# [42] = system: COLO 205 colon
# [43] = system: SK-OV-3 ovarian
structure (smiles),measurement,setting,value
CC1CC2C(=O)N(c3ccccc3)C(=O)C2c2c1c1ccccc1n2Cc1ccccc1 (stereo not drawn),TGI,[1],> 100 µM
same,TGI,[2],> 100 µM
same,TGI,[3],> 100 µM
same,TGI,[4],> 100 µM
same,TGI,[5],> 100 µM
same,TGI,[6],> 100 µM
same,TGI,[7],> 100 µM
same,TGI,[8],92.3 µM
same,TGI,[9],> 100 µM
same,TGI,[10],> 100 µM
same,TGI,[11],> 100 µM
same,TGI,[12],> 100 µM
same,TGI,[13],> 100 µM
same,TGI,[14],> 100 µM
same,TGI,[15],> 100 µM
same,TGI,[16],> 100 µM
same,TGI,[17],> 100 µM
same,TGI,[18],> 100 µM
same,TGI,[19],> 100 µM
same,TGI,[20],> 100 µM
same,TGI,[21],> 100 µM
same,TGI,[22],> 100 µM
same,TGI,[23],> 100 µM
same,TGI,[24],> 100 µM
same,TGI,[25],> 100 µM
same,TGI,[26],> 100 µM
same,TGI,[27],> 100 µM
same,TGI,[28],> 100 µM
same,TGI,[29],> 100 µM
same,TGI,[30],> 100 µM
same,TGI,[31],> 100 µM
same,TGI,[32],> 100 µM
same,TGI,[33],> 100 µM
same,TGI,[34],> 100 µM
same,TGI,[35],> 100 µM
same,TGI,[36],> 100 µM
same,TGI,[37],> 100 µM
same,TGI,[38],> 100 µM
same,TGI,[39],> 100 µM
same,TGI,[40],> 100 µM
same,TGI,[41],> 100 µM
same,TGI,[42],> 100 µM
same,TGI,[43],> 100 µM

# Reference: PubChem BioAssay (NCI)
